Test results reported in US12031986B2, “Polypeptide for targeting recognition of immune cells and application thereof” (KEYANGLE LIFE TECHNOLOGY CO., LTD., priority 2019, dated 2024).
“Also recorded” adds a separate entry of the source. No end group written: not given here.

What was measured:
[1] = tested on: cultured peritoneal macrophages and other cells released from enzyme-digested mesenterium; assay: Selective labeling of cultured peritoneal macrophages among other cells released from enzyme-digested mesenterium; type: cell-based, mouse; conditions: peritoneal cells and mesenteries trypsin-digested, cultured 3 days
Description: Take 5 to 8-week-old Kunming mice, inject intraperitoneally with 5 mL of serum-free DMEM incomplete medium. After 1 hour, sacrifice the mice by cervical vertebra dislocation. Make an incision on the skin of abdominal cavity, pierce the abdominal wall muscle using the syringe, and extract the fluid in the abdominal cavity of the mice. Wash twice with 1×PBS, collect peritoneal cells by centrifugation. Also take the mesenteries of the Kunming mice and purge twice with 1×PBS in centrifuge tubes. Incubate the obtained peritoneal cells and mesenteries in 0.25% trypsin solution and digest for 30 minutes. Enrich the cells by centrifugation, and then culture for 3 days in a 96-well plate using F12/DMEM culture solution containing 10% FBS and 1% streptomycin-penicillin. Referring to Example 5, label with the EK24 fluorescent probe and Nucblue. Then the cells were observed under a fluorescence microscope (20×, light source 10%, exposure 200 ms, gain 5).

[2] = tested on: mouse alveolar macrophages; assay: In vivo fluorescent labeling of mouse pulmonary macrophages after spraying through the trachea; conditions: sprayed into the lungs through the trachea; whole lungs observed
Excerpt: In yet another aspect of the present disclosure, it provides a method for convenient, oral and non-invasive in situ imaging or targeted drug administration for pulmonary immune cells. After spraying into the trachea of a mouse, the polypeptide or probe of the present disclosure can be diffused along the trachea in the living body, automatically target and aggregate in alveolar macrophages, and thus allow real-time and in situ imaging or targeted drug delivery to pulmonary and alveolar macrophages. The imaging may be maintained for more than 24 hours. The experiments of the present disclosure confirm that the probe described above can diffuse to lungs through mouth inhalation, and recognize macrophages therein, which is consistent with CD11c antibody recognizing alveolar macrophages.
Spray 100 μL of 50 μM EK24-drug into the lungs of 4- to 8-week-old mice through the trachea thereof, and after 18 hours, dilute 5 μL of Alexa Fluor®488 anti-mouse CD11c antibody (Biolegend) to 100 μL and then spray into the lung for 1.5 h. Dissect the mice, and take the whole lungs for observing under a fluorescence microscope (20×, light source 50%, exposure 200 ms, gain 5).

[3] = tested on: primary macrophages from rat peritoneal cavity; assay: In vitro fluorescent labeling of primary macrophages from rat peritoneal cavity; type: cell-based; conditions: SD rats, cells cultured more than 2 days
Description: With the same process as in Example 9, extract cells from the abdominal cavity of 5 to 8 weeks old SD rats using 20 mL serum-free DMEM incomplete medium and culture the cells in a 96-well plate. After culturing for more than 2 days until the cells attached to the bottom firmly, a well was selected and added with EK24 fluorescent probe for incubation. Then the cells were observed under a fluorescence microscope (20×, light source 10%, exposure 200 ms, gain 5).

[4] = tested on: cultured macrophages isolated from mouse peritoneal cavity; assay: In vitro fluorescent labeling of cultured macrophages isolated from mouse peritoneal cavity; type: cell-based; conditions: 10 μM EK24 premixed with F4/80 antibody, 1 h at 37 °C
Description: Inject 5 mL of serum-free DMEM incomplete medium into the abdominal cavity of 5 to 8 weeks old mice, massage the abdominal cavity gently for 10 min, and sacrifice the mice by cervical vertebra dislocation. Extract the fluid from the abdominal cavity gently with a syringe, inject into a 5 mL centrifuge tube and centrifuge at 1000 rpm for 5 min, remove the supernatant, and resuspend the collected ex-vivo cells in DMEM/F12 medium containing 10% FBS, then add into a 96-well plate for culture. Generally, if cells are taken intraperitoneally for in vitro culture, macrophages would tend to adhere to the bottom of the well, and other cells would be washed off. The cells were cultured for more than 2 days until the cells attached to the bottom firmly. At this time, the cells remaining in the wells were basically macrophages. Select two wells, one as a control and the other as an experimental well. The cells of the control were nuclear stained with Nucblue. The experimental well was added with a premix of AlexaFluor®488 anti-mouse F4/80 antibody (Biolegend) and EK24 fluorescent probe, and then incubated for 1 h at 37° ° C. The premix contained 10 μM of EK24 solution and 2 μL of Alexa Fluor®488 anti-mouse F4/80 antibody diluted with 100 μL of serum-free DMEM incomplete medium. […] The cells were observed under a fluorescence microscope (20× objective lens, light source 10%, exposure 200 ms, gain 5).

[5] = tested on: mouse macrophage cell line RAW264.7; assay: In vitro fluorescence labeled staining of a mouse macrophage cell line; type: cell-based; conditions: 10 μM, incubated 1 h
Description: Culture the mouse macrophage cell line RAW264.7 in a 96-well plate, wash the wells once with 1×PBS buffer or a serum-free DMEM incomplete medium, remove the washing liquid, add EK24 solution of 10 μM which had been diluted with 100 μL of serum-free DMEM incomplete medium, and incubate in a cell culture incubator for 1 h. After that, wash the wells twice with 1× PBS buffer or the serum-free DMEM incomplete medium. Then, add DMEM complete medium containing 10% FBS and 1% streptomycin-penicillin, and double-stain the cells using nuclear dye Nucblue and observe under EVOS® FL Auto fluorescence microscope (Life Technologies, light source 10%, exposure 200 ms, gain 5).

[6] = tested on: monocyte precursors from New Zealand White Rabbit bone marrow mesenchyme; assay: In vitro fluorescent labeling of primary monocyte precursors of New Zealand White Rabbit; type: cell-based; conditions: cultured
Excerpt: With a similar process to Example 11, bone marrow monocyte precursors of New Zealand White Rabbit were taken and cultured, then labeled by using EK24 fluorescent probe and Nucblue. Then the cells were observed under a fluorescence microscope (20×, light source 10%, exposure 200 ms, gain 5).

[7] = tested on: mouse peritoneal macrophages; assay: In vivo fluorescent labeling of macrophages in a mouse abdominal cavity; conditions: probe injected into abdominal cavity, cells extracted after 4 hours, fluorescence microscope
Description: Dilute 300 μL of 50 μM AK9 fluorescent probe solution with serum-free DMEM incomplete medium to obtain 1 mL of solution, then inject into the abdominal cavities of 5-8 week old Kunming mice. After 4 hours, inject 5 mL of 1×PBS, and massage. After 10 minutes, sacrifice the mice by cervical vertebra dislocation. Cut the abdominal cavity skin of the mice, pierce the abdominal wall muscle by syringe, and extract the fluid in the abdominal cavity of the mice. Centrifuge the extracted peritoneal fluid at 1000 rpm for 5 min, wash twice with 1×PBS. Double-stain an appropriate number of cells with Alexa Fluor 488 anti-mouse F4/80 antibody (Biolegend). Add the stained cells to a 96-well plate and stain with a nuclear dye Nucblue (Invitrogen). Observe under EVOS FL Auto fluorescence microscope (Life Technologies, 20×, light source 50%, exposure 200 ms, gain 10) after the suspended cells were settled down at the bottom of the plate.
Table 1 lists probes, which contain the polypeptide fragments from the C-terminal fragments of Triokinases/FMN cyclases of different species and were prepared by a similar process as described in Examples 1 and 2, and in vivo imaging results of mouse peritoneal macrophages using these probes.

[8] = tested on: macrophages on mouse abdominal wall; assay: In vivo fluorescent labeling of macrophages on mouse abdominal wall; conditions: injected with FITC anti-mouse CD68 antibody; abdominal wall muscle removed
Description: Referring to Example 3, using the same drug injection process, inject EK24, and FITC anti-mouse CD68 antibody (Biolegend) which was diluted with PBS from 2 μL to 500 μL. Remove mouse abdominal wall muscle for Nucblue double-staining and then observing under a fluorescence microscope (20×, light source 50%, exposure 200 ms, gain 5).

EQPDPGAVAAAAILRAILEVLQS-Y (EQPDPGAVAAAAILRAILEVLQSY; also: reporter type not given here; listed as Homo sapiens) [EK24, Y = reporter or cysteine/lysine + reporter]
staining of macrophages in mixed culture [1]: only stains macrophages | staining of non-macrophages in mixed culture [1]: not stain non-macrophages | recognition of mouse alveolar / pulmonary macrophages [2]: recognize the same cells in mouse alveoli | labeling of in vitro cultured primary macrophages from rat peritoneal cavity [3]: can effectively label | co-localization of probe label and F4/80 antibody label [4]: co-localized on the same cells | fluorescent labeling of RAW264.7 [5]: can be labeled | labeling of New Zealand White Rabbit bone marrow monocyte precursors [6]: capable of labeling | in vivo labeling / recognition of mouse peritoneal macrophages by the fluorescent probe [7]: can effectively recognize macrophages in vivo; also recorded: can be labeled | labeling of macrophages on mouse abdominal wall [8]: can be labeled | labeling of other cells of mouse abdominal wall [8]: cannot be labeled
